According to the Deep4Chem optical property database:

Experiment: solvent given as SMILES

Q: For `C(#Cc1c(C#Cc2ccccc2)c(C#Cc2ccccc2)c(C#Cc2ccccc2)c(C#Cc2ccccc2)c1C#Cc1ccccc1)c1ccccc1`, which absorption maximum (in ClCCl) is on record?
A: Its absorption maximum is 371 nm.

Q: Which absorption maximum (in ClC(Cl)Cl) does the source give for `c1ccc(-c2nc(-c3ccccc3)c(N(c3ccccc3)c3ccccc3)[se]2)cc1` here?
A: The absorption maximum was 384 nm.

Q: With `C#CCOc1ccc(/C=C/C2=[N+]3C(=C(c4ccccc4)c4c(C)cc(C)n4[B-]3(F)F)C(C)=C2)cc1` as the compound, how does the absorption maximum (in CO) read?
A: Its absorption maximum is 563 nm.

Q: With `c1ccncc1` as the compound, how does the absorption maximum (in CC1CCCCC1) read?
A: The absorption maximum was 252 nm.

Q: And the absorption maximum (in ClC(Cl)Cl)?
A: Its absorption maximum is 253 nm.

Q: What about the absorption maximum (in O) of the same compound?
A: The absorption maximum was 253 nm.

Q: What does the source list for `CCCCCCN(c1ccccc1)c1ccc(/C=C/c2cc(=O)oc3cc(C)ccc23)cc1`?
A: absorption maximum (in CS(C)=O): 432 nm; absorption maximum (in ClC(Cl)Cl): 424 nm

Q: For `Clc1ccc(-c2nc(-c3ccccc3)c(N(c3ccccc3)c3ccccc3)s2)cc1`, which absorption maximum (in ClC(Cl)Cl) is on record?
A: Its absorption maximum is 371 nm.

Q: With `CC(C)Oc1ccc(C#Cc2cc3ccccc3oc2=O)cc1` as the compound, how does the absorption maximum (in CC#N) read?
A: Its absorption maximum is 356 nm.

Q: Which absorption maximum (in ClCCl) does the source give for `CCn1c2cc(-c3ccc(-c4cccs4)s3)ccc2c2ccc(-c3ccc(-c4cccs4)s3)cc21` here?
A: The absorption maximum was 399 nm.

Q: For `CN(C)c1ccc(/C=C/c2nc3ccc(Br)cc3nc2-c2ccccc2)cc1`, which absorption maximum (in C1COCCO1) is on record?
A: The absorption maximum was 445 nm.

Q: And the absorption maximum (in CC#N)?
A: Its absorption maximum is 448 nm.

Q: And the absorption maximum (in ClCCl)?
A: Its absorption maximum is 453 nm.

Q: With `CCN(CC)c1ccc2cc(/C=C/c3cccc[n+]3CCCS(=O)(=O)[O-])c(=O)oc2c1` as the compound, how does the absorption maximum (in C1CCOC1) read?
A: The absorption maximum was 513 nm.

Q: What about the absorption maximum (in CC#N) of the same compound?
A: Its absorption maximum is 486 nm.

Q: What about the absorption maximum (in CC(C)=O) of the same compound?
A: The absorption maximum was 530 nm.

Q: And the absorption maximum (in CS(C)=O)?
A: Its absorption maximum is 494 nm.

Q: What about the absorption maximum (in Cc1ccccc1) of the same compound?
A: Its absorption maximum is 487 nm.

Q: And the absorption maximum (in O)?
A: The absorption maximum was 481 nm.

Q: What about the absorption maximum (in OCC(O)CO) of the same compound?
A: Its absorption maximum is 496 nm.

Q: For `CN(C)c1ccccc1`, which absorption maximum (in C1CCCCC1) is on record?
A: The absorption maximum was 293.94 nm.

Q: With `CC(C)(C)c1ccc(-c2c(-c3ccc4c5ccccc5n(-c5ccccc5)c4c3)c(C#N)c(-c3ccc4c5ccccc5n(-c5ccccc5)c4c3)c(-c3ccc(C(C)(C)C)cc3)c2-c2ccc(C(C)(C)C)cc2)cc1` as the compound, how does the absorption maximum (in C1CCOC1) read?
A: The absorption maximum was 345 nm.

Q: With `O=[N+]([O-])c1cc(C=C(C#Cc2ccccc2)C#Cc2ccccc2)ccc1C=C(C#Cc1ccccc1)C#Cc1ccccc1` as the compound, how does the absorption maximum (in ClC(Cl)Cl) read?
A: Its absorption maximum is 413 nm.

Q: For `CCCCOC(=O)c1cc(Cl)c2c3c(Cl)cc4c5c(cc(Cl)c(c6c(Cl)cc(C(=O)OCCCC)c1c26)c53)C(=O)N(c1c(C(C)C)cccc1C(C)C)C4=O`, which absorption maximum (in Cc1ccccc1) is on record?
A: Its absorption maximum is 496 nm.

Q: Which absorption maximum (in ClCCl) does the source give for `COc1ccc(C2=[N+]3C(=Nc4c(-c5ccc6ccccc6c5)cc(-c5ccc(OC)cc5)n4[B-]3(F)F)C(c3ccc4ccccc4c3)=C2)cc1` here?
A: Its absorption maximum is 704 nm.

Q: For `COC(=O)C(NC(=O)OC(C)(C)C)c1ccc2oc(-c3cccc(Oc4ccccc4)c3)nc2c1` (stereo not drawn), which absorption maximum (in CC1CCCCC1) is on record?
A: Its absorption maximum is 321 nm.

Q: What about the absorption maximum (in CC#N) of the same compound?
A: Its absorption maximum is 305 nm.

Q: And the absorption maximum (in CO)?
A: The absorption maximum was 305 nm.

Q: For `CN(C)c1ccc(N2c3c(sc4ccccc34)Sc3sc4ccccc4c32)cc1`, which absorption maximum (in ClCCl) is on record?
A: The absorption maximum was 309 nm.

Q: With `Cc1s[c+](N2CCOCC2)sc1-c1cc(I)cc(I)c1[O-]` as the compound, how does the absorption maximum (in C1CCOC1) read?
A: Its absorption maximum is 425 nm.

Q: What about the absorption maximum (in CC#N) of the same compound?
A: Its absorption maximum is 409 nm.

Q: What about the absorption maximum (in CO) of the same compound?
A: The absorption maximum was 371 nm.

Q: What about the absorption maximum (in ClCCl) of the same compound?
A: Its absorption maximum is 413 nm.

Q: Which absorption maximum (in CCCCCCC) does the source give for `c1cc2c3c(cccc3c1)-c1cc3c(ccc4ccccc43)cc1-2` here?
A: Its absorption maximum is 405 nm.

Q: Which results are given for `CCCCCCCCN1c2ccc(C#Cc3ccc(OC)cc3)cc2Sc2cc(C=O)ccc21`?
A: absorption maximum (in C1CCOC1): 378 nm; absorption maximum (in CC#N): 380.01 nm; absorption maximum (in CCCCCC): 374 nm; absorption maximum (in CO): 351.11 nm; absorption maximum (in CS(C)=O): 383.45 nm; absorption maximum (in Cc1ccccc1): 383 nm; absorption maximum (in ClC(Cl)Cl): 382.5 nm

Q: For `C1=C(c2ccccc2)C(c2ccccc2)=CC1c1ccccc1`, which absorption maximum (in C1CCOC1) is on record?
A: The absorption maximum was 290 nm.

Q: For `CC1=CC(C)=[N+]2C1=C(C1=C3C(C)=CC(C)=[N+]3[B-](F)(F)n3c(C)cc(C)c31)c1c(C)cc(C)n1[B-]2(F)F`, which absorption maximum (in ClC(Cl)Cl) is on record?
A: Its absorption maximum is 515 nm.

Q: Which results are given for `CCOC(=O)COc1ccc(/C=C/c2cc(C)c3n2[B-](F)(F)[N+]2=C(c4[nH]c(C)cc4C)c4ccccc4C2=C3)cc1`?
A: absorption maximum (in C1CCOC1): 679 nm; absorption maximum (in CC#N): 670 nm; absorption maximum (in CCCCCC): 679 nm; absorption maximum (in CO): 671 nm; absorption maximum (in Cc1ccccc1): 678 nm; absorption maximum (in ClCCl): 680 nm

Q: For `CCC1=C(C)C2=Cc3ccccc3B(O)N2C1=O`, which absorption maximum (in CC#N) is on record?
A: Its absorption maximum is 358 nm.

Q: What about the absorption maximum (in CCCCCC) of the same compound?
A: Its absorption maximum is 378 nm.

Q: And the absorption maximum (in CO)?
A: The absorption maximum was 359 nm.

Q: What about the absorption maximum (in CS(C)=O) of the same compound?
A: Its absorption maximum is 361 nm.

Q: What about the absorption maximum (in ClC(Cl)Cl) of the same compound?
A: The absorption maximum was 362 nm.

Q: For `CC/[NH+]=c1\cc2oc3cc(NCCC(=O)O)c4ccccc4c3nc-2cc1C`, which absorption maximum (in CCO) is on record?
A: Its absorption maximum is 590 nm.

Q: What about the absorption maximum (in O) of the same compound?
A: Its absorption maximum is 580 nm.

Q: For `C(=C\c1nc(/C=C/c2ccccc2)nc(/C=C/c2ccccc2)n1)/c1ccccc1`, which absorption maximum (in ClCCl) is on record?
A: Its absorption maximum is 327 nm.

Q: For `CCCCCCOc1ccc2c(c1)-c1cc3c(cc1[Si]2(C)C)-c1ccccc1[Si]3(C)C`, which absorption maximum (in ClCCl) is on record?
A: Its absorption maximum is 327 nm.

Q: Which absorption maximum (in CC1CCCO1) does the source give for `COc1c(-c2c(OC)c3cccc4ccc5oc(=O)cc2c5c43)c2cc(=O)oc3ccc4cccc1c4c32` here?
A: Its absorption maximum is 476 nm.

Q: Which absorption maximum (in C1CCOC1) does the source give for `COc1ccc(-c2cc3c(s2)-c2sc(-c4ccc(OC)cc4)cc2P(c2ccccc2)(c2ccccc2)=[O+][B-]3(c2c(C)cc(C)cc2C)c2c(C)cc(C)cc2C)cc1` here?
A: Its absorption maximum is 415 nm.

Q: For `CC[C@H](C)COc1ccc(C2=C3C(C)=C(c4ccc5ccc6cccc7ccc4c5c67)C(C)=[N+]3[B-](F)(F)n3c(C)c(-c4ccc5ccc6cccc7ccc4c5c67)c(C)c32)cc1`, which absorption maximum (in ClCCl) is on record?
A: The absorption maximum was 530 nm.

Q: With `CCCCCCCCCCCCn1c(-c2cc(-c3nc4ccc(C)cc4n3CCCCCCCCCCCC)cc(-c3nc4ccc(C)cc4n3CCCCCCCCCCCC)c2)nc2ccc(C)cc21` as the compound, how does the absorption maximum (in ClCCl) read?
A: Its absorption maximum is 306.5 nm.

Q: Which absorption maximum (in CC#N) does the source give for `CN(C)c1ccc(-c2nc3nccnc3n2-c2ccccc2)cc1` here?
A: The absorption maximum was 371 nm.

Q: With `N#Cc1c(N2CCCCC2)cc(-c2ccc3ccc4cccc5ccc2c3c45)c2c1C(=O)c1ccccc1-2` as the compound, how does the absorption maximum (in C1CCOC1) read?
A: The absorption maximum was 344 nm.

Q: With `CCCCCCCCn1c2cc(/C=C/c3ccc(N(c4ccccc4)c4ccccc4)cc3)ccc2c2cc3c(cc21)c1ccc(/C=C/c2ccc(N(c4ccccc4)c4ccccc4)cc2)cc1n3CCCCCCCC` as the compound, how does the absorption maximum (in Cc1ccccc1) read?
A: The absorption maximum was 416 nm.

Q: With `N#Cc1ccc(N(c2ccccc2)c2ccc3ccc4c(N(c5ccccc5)c5ccc(C#N)cc5)ccc5ccc2c3c54)cc1` as the compound, how does the absorption maximum (in ClCCl) read?
A: The absorption maximum was 407 nm.

Q: With `Nc1ccc2c(c1)Cc1ccccc1-2` as the compound, how does the absorption maximum (in C1CCCCC1) read?
A: The absorption maximum was 318 nm.

Q: And the absorption maximum (in C1COCCO1)?
A: The absorption maximum was 322 nm.

Q: And the absorption maximum (in CC#N)?
A: The absorption maximum was 325 nm.

Q: What about the absorption maximum (in CC(C)O) of the same compound?
A: Its absorption maximum is 317 nm.

Q: What about the absorption maximum (in CCCCCC) of the same compound?
A: Its absorption maximum is 318 nm.

Q: What about the absorption maximum (in CCCCCCC) of the same compound?
A: The absorption maximum was 317 nm.

Q: And the absorption maximum (in CCO)?
A: The absorption maximum was 317 nm.

Q: And the absorption maximum (in CCOC(C)=O)?
A: The absorption maximum was 325 nm.

Q: What about the absorption maximum (in CCOCC) of the same compound?
A: The absorption maximum was 318 nm.

Q: What about the absorption maximum (in CO) of the same compound?
A: The absorption maximum was 317 nm.

Q: And the absorption maximum (in ClCCl)?
A: The absorption maximum was 319 nm.

Q: And the absorption maximum (in O)?
A: Its absorption maximum is 315 nm.

Q: For `COc1ccc2c(c1)-c1cc(OC)ccc1C2=O`, which absorption maximum (in C1CCCCC1) is on record?
A: Its absorption maximum is 361 nm.

Q: What about the absorption maximum (in CC#N) of the same compound?
A: The absorption maximum was 376 nm.

Q: What about the absorption maximum (in CCO) of the same compound?
A: The absorption maximum was 382 nm.

Q: For `C(=C\c1nc2ccccc2[nH]1)/c1ccc(/C=C/c2nc3ccccc3[nH]2)cc1`, which absorption maximum (in C1CCOC1) is on record?
A: Its absorption maximum is 389 nm.

Q: And the absorption maximum (in CC#N)?
A: Its absorption maximum is 382 nm.

Q: And the absorption maximum (in CC(C)=O)?
A: Its absorption maximum is 395 nm.

Q: What about the absorption maximum (in CN(C)C=O) of the same compound?
A: The absorption maximum was 390 nm.

Q: What about the absorption maximum (in CO) of the same compound?
A: The absorption maximum was 384 nm.

Q: What about the absorption maximum (in CS(C)=O) of the same compound?
A: Its absorption maximum is 392 nm.

Q: With `Cc1ccc(-n2c(-c3ccccc3O)nc(-c3ccccc3O)c2-c2ccccc2O)cc1` as the compound, how does the absorption maximum (in C1CCOC1) read?
A: Its absorption maximum is 307 nm.

Q: And the absorption maximum (in CC(C)O)?
A: The absorption maximum was 303 nm.

Q: And the absorption maximum (in CO)?
A: The absorption maximum was 303 nm.

Q: And the absorption maximum (in CS(C)=O)?
A: Its absorption maximum is 306 nm.

Q: And the absorption maximum (in ClC(Cl)Cl)?
A: Its absorption maximum is 310 nm.

Q: What about the absorption maximum (in ClCCl) of the same compound?
A: Its absorption maximum is 309 nm.

Q: What does the source list for `O=C1c2cc(F)ccc2-c2cnccc21`?
A: absorption maximum (in CC#N): 408.61 nm; absorption maximum (in CCCCCC): 408.61 nm

Q: With `COC(=O)c1[nH]c(-c2ccccc2)c2nnc3ccsc3c12` as the compound, how does the absorption maximum (in ClCCl) read?
A: Its absorption maximum is 401 nm.

Q: For `CC1(C)c2ccccc2N(c2ccc3c(c2)Oc2ccccc2P3(=O)c2ccccc2)c2ccccc21` (stereo not drawn), which absorption maximum (in Cc1ccccc1) is on record?
A: The absorption maximum was 348 nm.
